Assays:
Assay type in all cases: functional, organism-based, Sprague-Dawley
[1] = target: T1, ATP-binding cassette sub-family C member 3 (Rattus norvegicus, UniProt O88563); experiment: TP_TRANSPORTER: Western in vivo SD rat, liver
[2] = target: T1, ATP-binding cassette sub-family C member 3; experiment: (§1) TP_TRANSPORTER: Northern blot in vivo SD rat, liver
[3] = target: ATP-binding cassette sub-family C member 6 (Rattus norvegicus, UniProt O88269); experiment: as §1
[4] = target: T2, Hepatic sodium/bile acid cotransporter (Rattus norvegicus, UniProt P26435); experiment: as §1
T2 sequence (P26435 whole entry): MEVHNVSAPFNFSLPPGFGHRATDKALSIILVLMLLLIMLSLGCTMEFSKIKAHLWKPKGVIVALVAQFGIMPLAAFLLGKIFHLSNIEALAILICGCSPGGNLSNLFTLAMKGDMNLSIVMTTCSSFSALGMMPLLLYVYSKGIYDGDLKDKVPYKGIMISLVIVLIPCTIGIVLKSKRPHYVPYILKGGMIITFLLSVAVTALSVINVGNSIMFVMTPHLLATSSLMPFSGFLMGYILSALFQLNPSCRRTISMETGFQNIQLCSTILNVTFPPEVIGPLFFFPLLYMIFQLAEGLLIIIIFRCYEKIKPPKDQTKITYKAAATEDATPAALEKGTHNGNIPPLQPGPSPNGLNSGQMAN

Measured: Activity

T1 sequence (O88563 whole entry): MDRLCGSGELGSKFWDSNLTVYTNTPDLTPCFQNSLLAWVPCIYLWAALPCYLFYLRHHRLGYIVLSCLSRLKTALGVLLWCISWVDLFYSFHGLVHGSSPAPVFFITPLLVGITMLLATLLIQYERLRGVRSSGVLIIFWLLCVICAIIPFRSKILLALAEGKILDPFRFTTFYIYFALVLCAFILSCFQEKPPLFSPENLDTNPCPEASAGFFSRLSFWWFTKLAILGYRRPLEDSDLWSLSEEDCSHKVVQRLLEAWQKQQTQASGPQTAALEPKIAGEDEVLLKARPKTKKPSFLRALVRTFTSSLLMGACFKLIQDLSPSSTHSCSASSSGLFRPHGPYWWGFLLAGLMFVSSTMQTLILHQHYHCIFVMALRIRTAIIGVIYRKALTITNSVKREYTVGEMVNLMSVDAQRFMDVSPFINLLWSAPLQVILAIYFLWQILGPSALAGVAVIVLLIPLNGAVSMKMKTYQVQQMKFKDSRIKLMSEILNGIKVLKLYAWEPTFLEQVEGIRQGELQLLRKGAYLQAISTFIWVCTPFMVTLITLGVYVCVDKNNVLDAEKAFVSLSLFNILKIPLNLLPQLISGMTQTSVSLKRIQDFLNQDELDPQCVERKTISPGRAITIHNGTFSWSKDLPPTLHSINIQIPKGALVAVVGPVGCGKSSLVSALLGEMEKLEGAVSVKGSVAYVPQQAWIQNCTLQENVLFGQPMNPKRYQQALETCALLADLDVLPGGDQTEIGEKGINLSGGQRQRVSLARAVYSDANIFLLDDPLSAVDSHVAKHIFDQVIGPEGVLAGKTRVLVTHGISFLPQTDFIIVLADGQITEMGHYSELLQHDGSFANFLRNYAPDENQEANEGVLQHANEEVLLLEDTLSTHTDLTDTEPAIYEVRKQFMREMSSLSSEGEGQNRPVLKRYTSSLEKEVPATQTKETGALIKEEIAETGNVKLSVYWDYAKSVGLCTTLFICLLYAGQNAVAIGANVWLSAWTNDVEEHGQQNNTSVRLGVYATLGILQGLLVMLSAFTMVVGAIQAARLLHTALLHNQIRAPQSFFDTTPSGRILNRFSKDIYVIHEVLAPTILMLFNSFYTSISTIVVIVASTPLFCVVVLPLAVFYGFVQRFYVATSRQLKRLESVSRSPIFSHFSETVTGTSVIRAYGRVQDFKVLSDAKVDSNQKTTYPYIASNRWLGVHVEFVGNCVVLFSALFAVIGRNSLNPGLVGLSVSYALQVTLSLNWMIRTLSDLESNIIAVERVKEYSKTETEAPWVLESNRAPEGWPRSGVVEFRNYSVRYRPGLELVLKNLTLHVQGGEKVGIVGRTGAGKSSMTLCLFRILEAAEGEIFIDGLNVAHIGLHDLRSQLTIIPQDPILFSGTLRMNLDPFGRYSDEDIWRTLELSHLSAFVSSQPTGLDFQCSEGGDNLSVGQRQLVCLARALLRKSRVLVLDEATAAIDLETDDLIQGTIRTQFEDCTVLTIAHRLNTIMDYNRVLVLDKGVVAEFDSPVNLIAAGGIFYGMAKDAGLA
Chain of ATP-binding cassette sub-family C member 6 (O88269 whole entry): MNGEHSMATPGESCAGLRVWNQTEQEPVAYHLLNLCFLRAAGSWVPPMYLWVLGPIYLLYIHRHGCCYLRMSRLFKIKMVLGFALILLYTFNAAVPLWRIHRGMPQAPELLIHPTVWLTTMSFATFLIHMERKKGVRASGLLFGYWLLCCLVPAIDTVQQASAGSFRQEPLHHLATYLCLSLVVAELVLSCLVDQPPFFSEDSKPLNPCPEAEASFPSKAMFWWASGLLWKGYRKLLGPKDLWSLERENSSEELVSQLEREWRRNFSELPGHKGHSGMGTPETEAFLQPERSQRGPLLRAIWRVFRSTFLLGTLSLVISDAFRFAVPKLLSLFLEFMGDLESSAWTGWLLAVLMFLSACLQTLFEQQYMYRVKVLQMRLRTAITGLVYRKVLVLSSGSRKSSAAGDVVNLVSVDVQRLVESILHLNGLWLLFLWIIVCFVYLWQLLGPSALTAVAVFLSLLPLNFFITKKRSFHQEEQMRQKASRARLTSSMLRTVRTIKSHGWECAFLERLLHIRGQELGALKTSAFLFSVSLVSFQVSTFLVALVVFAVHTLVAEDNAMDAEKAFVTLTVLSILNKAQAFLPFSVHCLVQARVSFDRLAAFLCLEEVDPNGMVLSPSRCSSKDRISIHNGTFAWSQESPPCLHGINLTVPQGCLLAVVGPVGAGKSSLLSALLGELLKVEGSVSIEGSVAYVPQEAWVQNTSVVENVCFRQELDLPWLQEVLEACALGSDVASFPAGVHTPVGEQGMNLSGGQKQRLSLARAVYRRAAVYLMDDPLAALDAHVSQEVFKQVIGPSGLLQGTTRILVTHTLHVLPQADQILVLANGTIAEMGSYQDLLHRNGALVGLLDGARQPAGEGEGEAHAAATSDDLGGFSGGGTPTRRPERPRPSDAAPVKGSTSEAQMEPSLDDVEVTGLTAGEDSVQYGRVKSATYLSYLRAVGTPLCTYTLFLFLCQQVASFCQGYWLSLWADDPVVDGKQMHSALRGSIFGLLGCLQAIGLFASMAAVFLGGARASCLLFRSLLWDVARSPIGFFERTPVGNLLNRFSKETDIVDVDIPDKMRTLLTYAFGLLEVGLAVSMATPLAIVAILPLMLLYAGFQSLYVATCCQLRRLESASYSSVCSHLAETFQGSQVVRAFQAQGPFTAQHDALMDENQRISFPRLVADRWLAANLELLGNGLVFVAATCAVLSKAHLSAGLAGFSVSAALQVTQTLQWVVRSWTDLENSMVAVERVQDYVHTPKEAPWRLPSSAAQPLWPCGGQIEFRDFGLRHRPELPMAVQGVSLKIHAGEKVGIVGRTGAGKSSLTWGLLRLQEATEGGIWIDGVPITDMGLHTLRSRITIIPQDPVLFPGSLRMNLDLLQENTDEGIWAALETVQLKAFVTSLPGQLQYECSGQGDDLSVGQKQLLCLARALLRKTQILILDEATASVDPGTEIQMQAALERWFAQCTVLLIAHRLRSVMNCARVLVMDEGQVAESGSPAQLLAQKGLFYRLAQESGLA

CCC1(c2ccccc2)C(=O)NC(=O)NC1=O [PHENOBARBITAL]
inducer [+]: all assays above

O=C=Nc1cccc2ccccc12 [alpha-naphthylisocyanate]
inducer [+]: all assays above

— ChEMBL document CHEMBL2074275, “Characterization of inducible nature of MRP3 in rat liver” (Am J Physiol Gastrointest Liver Physiol, 2000)
